Experimental data published in US20250195521A1 (Revolution Medicines, Inc., priority 2020, published 2025).
pIC50: −log10 of the molar value.

Experiments:
[1] = biological target: NRAS G12C binding to BRAF RBD (Homo sapiens (Human), UniProt P01111+P62937, G12C); assay: Ras-Raf disruption/FRET/MOA assay, NRAS G12C; type: biochemical
Excerpt: (§1) Note—The following protocol describes a procedure for monitoring disruption of K-Ras G12C(GMP-PNP) binding to BRAF^RBD by a compound of the invention. This protocol may also be executed substituting other Ras proteins or nucleotides.
(§2) The purpose of this biochemical assay was to measure the ability of test compounds to facilitate ternary complex formation between a nucleotide-loaded K-Ras isoform and Cyclophilin A; the resulting ternary complex disrupts binding to a BRAF^RBD construct, inhibiting K-Ras signaling through a RAF effector. Data is reported as IC50 values.
(§3) Compound was present in plate wells as a 10-point 3-fold dilution series starting at a final concentration of 30 μM. After incubation at 25° C. for 3 hours, a mixture of Anti-His Eu—W1024 and anti-GST allophycocyanin was then added to assay sample wells at final concentrations of 10 nM and 50 nM, respectively, and the reaction incubated for an additional 1.5 hours. […] Compounds that facilitate disruption of a K-Ras: RAF complex were identified as those eliciting a decrease in the TR-FRET ratio relative to DMSO control wells.

[2] = biological target: KRAS G13D binding to BRAF RBD (Homo sapiens (Human), UniProt P01116+P62937, G13D); assay: Ras-Raf disruption/FRET/MOA assay, KRAS G13D; type: biochemical
Excerpt: as §1, §2, §3

Sequence of KRAS G13D binding to BRAF RBD (P01116 other isoform, or with tags, fused parts or gaps G13D): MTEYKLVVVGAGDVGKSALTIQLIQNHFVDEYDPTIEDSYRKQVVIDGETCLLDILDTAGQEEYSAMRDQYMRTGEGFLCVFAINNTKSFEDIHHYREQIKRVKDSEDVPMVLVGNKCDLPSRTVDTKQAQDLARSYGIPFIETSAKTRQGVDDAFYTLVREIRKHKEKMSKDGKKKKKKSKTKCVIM
Sequence of KRAS G13D binding to BRAF RBD (P62937 whole entry): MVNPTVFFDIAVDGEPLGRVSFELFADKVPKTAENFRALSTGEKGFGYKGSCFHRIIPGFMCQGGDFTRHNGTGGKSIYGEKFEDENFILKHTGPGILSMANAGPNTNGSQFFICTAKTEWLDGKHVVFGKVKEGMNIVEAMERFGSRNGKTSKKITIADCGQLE
Sequence of NRAS G12C binding to BRAF RBD (P01111 whole entry G12C): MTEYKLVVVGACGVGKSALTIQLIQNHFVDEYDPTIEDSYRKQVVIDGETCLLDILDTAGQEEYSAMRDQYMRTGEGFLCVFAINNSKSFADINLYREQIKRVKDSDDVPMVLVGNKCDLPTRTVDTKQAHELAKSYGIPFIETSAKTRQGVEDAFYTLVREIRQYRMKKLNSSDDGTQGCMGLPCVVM
Sequence of NRAS G12C binding to BRAF RBD (P62937 whole entry): as the sequence (P62937 whole entry) above

pIC50 [1] | pIC50 [2] | SMILES
7.00 to 8.00 | < 5.00 | CCn1c(-c2cccnc2[C@H](C)OC)c2c3cc(ccc31)-c1csc(n1)C[C@H](NC(=O)[C@H](C(C)C)N1CC[C@]3(CCN(C(=O)C#CC(C)(C)N(C)C)C3)C1=O)C(=O)N1CCC[C@H](N1)C(=O)OCC(C)(C)C2 (single isomer, unassigned) [Compound A425]
5.00 to 6.00 | < 5.00 | CC#CC(=O)N1CC[C@]2(CCN([C@H](C(=O)N[C@H]3Cc4cccc(c4)-c4ccc5c(c4)c(c(-c4cccnc4[C@H](C)OC)n5CC)CC(C)(C)COC(=O)[C@@H]4CCCN(N4)C3=O)C(C)C)C2=O)C1 (single isomer, unassigned) [Compound A426]

The next lines start with the molecule.

SMILES | pIC50 [1] | pIC50 [2]
CCn1c(-c2cccnc2COC)c2c3cc(ccc31)-c1cc(C)cc(c1)C[C@H](NC(=O)[C@@H](C(C)C)N(C)C(=O)[C@H]1CCN(C(=O)C#CCN(C)C)C1)C(=O)N1CCC[C@H](N1)C(=O)OCC(C)(C)C2 [Compound A156] | 6.00 to 7.00 | 5.00 to 6.00
CCn1c(-c2cccnc2COC)c2c3cc(ccc31)-c1cc(O)cc(c1)C[C@H](NC(=O)[C@H](C(C)C)N(C)C(=O)[C@H]1CCN(C(=O)/C=C\CN(C)C)C1)C(=O)N1CCC[C@H](N1)C(=O)OCC(C)(C)C2 [Compound A161] | 6.00 to 7.00 | 5.00 to 6.00
CCn1c(-c2cccnc2[C@H](C)OC)c2c3cc(ccc31)-c1cc(cc(C(F)F)c1)C[C@H](NC(=O)[C@@H](COC1CN(C(=O)C#CC(C)(C)N(C)C)C1)C(C)C)C(=O)N1CCC[C@H](N1)C(=O)OCC(C)(C)C2 [Compound A404] | 6.00 to 7.00 | < 5.00
CCn1c(-c2cccnc2[C@H](C)OC)c2c3cc(ccc31)-c1cccc(c1)C[C@H](NC(=O)[C@H](C(C)C)N1CC[C@]3(CCN(C(=O)C#CC(C)(C)N(C)C)C3)C1=O)C(=O)N1CCC[C@H](N1)C(=O)OCC(C)(C)C2 [Compound A414] |  | < 5.00
